Measurements published in EP2924039A1, “2-Amino-1-phenyl-pyrrolo[3,2-b]quinoxaline-3-carboxamide derivates” (Universität Zürich, priority 2014, dated 2015).

Experiments:
EphA3 [1] = molecular target: T1, EphA3 (Homo sapiens, UniProt P29320); test: Surface Plasmon Resonance (SPR) determination of Kd; assay type: binding; details: immobilized EphA3, 20 mM PBS pH 7.4, 150 mM NaCl
T1 construct: A clone of EphA3 kinase domain (residues: 606-947); made in house; host or cells: Escherichia coli BL21 (DE3)
T1 sequence (P29320 606-947): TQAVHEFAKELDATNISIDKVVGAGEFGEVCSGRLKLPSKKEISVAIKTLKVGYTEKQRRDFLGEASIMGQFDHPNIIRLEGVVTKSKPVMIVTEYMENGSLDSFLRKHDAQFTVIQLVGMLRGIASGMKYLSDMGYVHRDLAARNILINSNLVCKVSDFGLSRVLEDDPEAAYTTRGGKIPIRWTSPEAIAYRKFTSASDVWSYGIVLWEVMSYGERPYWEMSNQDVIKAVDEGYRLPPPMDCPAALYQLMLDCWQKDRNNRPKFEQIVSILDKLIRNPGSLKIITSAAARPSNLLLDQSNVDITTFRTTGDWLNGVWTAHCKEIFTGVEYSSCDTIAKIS
Source text: The EphA3-compound dissociation constant (Kd) in Table 2 were obtained following the experimental protocol of Jecklin M.C., et al (Journal of Molecular Recognition 22(4), 319-329), subject to the following modifications: • 1) EphA3 protein was purified as per the protocol given in the "Experimental Section" of Lafleur K., Dong J., Huang D., Caflisch A. and C. Nevado (Journal of Medicinal Chemistry, 2013; 56(1):84-96), under the header "Protein Expression and Purification". Protein concentration was determined using a NanoDrop 1000 from Thermo Scientific (Witec AG, Littau LU, Switzerland). • 2) Under "Instrumentation and reagents": 20 mM PBS pH 7.4, 150 mM NaCl was used as running buffer. • 3) Under "Enzyme immobilization": Following activation of flow cells, 300 µg/ml of EphA3 in immobilization buffer was injected over a 2 minute time period. Residual activated groups on the surface were then blocked by a 7 minute injection of 1 M ethanolamine, pH 8.5. […] Each suspension was then analyzed, commencing from the lowest and proceeding to the highest concentration, and then run in duplicate from the highest to the lowest concentration. During each binding cycle, the compound suspension was injected during a time period of 6 minutes at a flow rate of 5 µl/min and dissociation was monitored for 900 s. […]

[2] = In vivo pharmacokinetics in blood plasma; parameters: species or system male CD-1 (ICD) mice; details: for T1/2 (min, PO) / Cmax / Tmax: 5 mg/kg, PO; for Bio-availability (%): [AUClast(PO)*Dose(IV)] / [AUClast(IV)*Dose(PO)], PO 5 mg/kg, IV 1 mg/kg; for Tmax: read-out: Tmax (min, PO) (converted)
Description: Evaluation of the in vivo pharmacokinetics of a subset of compounds was performed through analysis of compound concentration in the blood plasma of male CD-1 (ICD) mice (each weighing 20-30g) over a 24 hour period (at time points of 3, 10, 30, 60, 120, 240, 360 and1440 minutes) following a single oral (PO) and intravenous (IV, in tail vein) administration of a compound dose corresponding to 5 mg of compound/kg of mouse body weight (PO) and 1 mg of compound/kg of mouse body weight (IV). For IV dosing, each compound was formulated as a clear solution in DMSO/Solutol® HS 15/phosphate-buffered saline, pH 7.4 (PBS) (5/5/90, v/v/v). For PO dosing, compounds were formulated as a homogeneous suspension in DMSO/1% methylcellulose (5/95, v/v).
At the relevant time point, blood samples (300-400 µL) were collected from the mice under general inhalant anaesthesia by cardiac puncture and stored on ice in 0.6 mL polypropylene heparin-lithium-coated tubes. Within 1 hour of collection, each tube was centrifuged at 2500 G for 15 minutes at 4°C and harvested plasma stored at -20°C.
Compound concentration in plasma at each time point was determined following acetonitrile precipitation of each sample followed by HPLC-MS analysis performed in triplicates, i.e., based on the mean of the compound concentration at that time point in blood samples of three mice.
T1/2 is the terminal elimination half-life following IV and PO dosing (obtained from non-compartmental analysis (NCA) of the plasma data using WinNonLin). Tmax is the time following PO administration at which the maximum concentration is observed (obtained from non-compartmental analysis (NCA) of the plasma data using WinNonLin). Cmax corresponds to the concentration observed at Tmax following PO administration (obtained from non-compartmental analysis (NCA) of the plasma data using WinNonLin). Bioavailability was calculated as the ratio of: [AUClast(PO)*Dose(IV)] / [AUClast(IV)*Dose(PO)] where AUClast is the area under the curve (estimated by summing incremental areas of a series of trapezoids) of a plot of compound concentration versus time, up to the time of the last observation that is greater than the limit of quantification. Table 6: In vivo pharmacokinetics (min: minutes)

EphA3 [3] = molecular target: T1, EphA3; test: Differential Scanning Fluorimetry; assay type: binding; details: 2 µM EphA3, compound 20µM; read-out: Delta Tm
Description: Cell pellets were resuspended in buffer A (50mM Tris, pH 8.0 and 100mM NaCl, supplemented with protease inhibitors) and lysed by sonication. After centrifugation at 15,000 rpm for 1 h, the soluble fraction of EphA3 was purified using […] (GE healthcare), followed by gel filtration chromatography (Superdex75; GE healthcare). The appropriate fractions were combined and concentrated to ~10 mg/mL using Amicon filter devices (10kDa as cutoff) in a storage solution (100mM sodium chloride and 10mM Tris-HCl pH 8.0, 5% glycerol). The resulting solution was aliquoted and stored at -80°C for further usage.
A final volume of 40µL was added per well in a 96 well plate and incubated at room temperature for 1 h. The plates were centrifuged for 3 min at 450 rcf. The temperature gradient was performed in the range of 25°C-75°C (50 acquisitions per degree at a ramp rate of 4.4°C/s) using a LightCycler 480 Real-Time PCR System. […] All measurements were performed in triplicate.

[4] = male, CD-1 (ICD), mouse, mice plasma

Kd (EphA3 [1]) | T1/2 (min, IV) ([2]; IV, 1 mg/kg, mice plasma) | T1/2 (min, PO) ([2]; mice plasma) | Bio-availability (%) [2] | Cmax [2, 4] | Tmax [2, 4] | ΔTm at 20 µM (EphA3 [3]) | half-life ([2]; male, CD-1 (ICD), mouse, IV, 1 mg/kg, mice plasma, read-out: T1/2 (min, IV)) | SMILES
3.7 nM | 1.1 h | 2.78 h | 30% | 164 ng/mL | 1 h | 9.1 °C |  | NC(=O)c1c(N)n(-c2cccc(C(=O)Nc3cccc(C(F)(F)F)c3)c2)c2nc3ccccc3nc12 [Compound 10c, 2-amino-1-(3-((3-(trifluoromethyl)phenyl)carbamoyl)phenyl)-1H-pyrrolo[2,3-b]quinoxaline-3-carboxamide]
40.1 nM |  | 4.95 h | 10% | 45 ng/mL | 2 h | 7.6 °C | 1.18 h | NC(=O)c1c(N)n(-c2cccc(NC(=O)c3cccc(C(F)(F)F)c3)c2)c2nc3ccccc3nc12 [Compound 10d, 2-amino-1-(3-(3-(trifluoromethyl)benzamido)phenyl)-1H-pyrrolo[2,3-b]quinoxaline-3-carboxamide]
